# Reference: ChEMBL document CHEMBL3885881, “DrugMatrix”
# Organism: Rattus norvegicus
# Assay: DrugMatrix - Regimen: Daily Repeat
# Format: toxicity, organism-based, Sprague-Dawley
# Set-up: regimen Daily Repeat, gender Male, age 6-8 weeks
# Details: in vivo, po, route oral GAVAGE, […]; for ABSOLUTE BASOPHIL / ABSOLUTE EOSINOPHIL / ABSOLUTE LYMPHOCYTE / ABSOLUTE MONOCYTE / ABSOLUTE SEGMENTED NEUTROPHIL / BASOPHIL / EOSINOPHIL / ERYTHROCYTE COUNT / HEMATOCRIT / HEMOGLOBIN / LEUKOCYTE COUNT / LYMPHOCYTE / MEAN CORPUSCULAR HEMOGLOBIN / MEAN CORPUSCULAR HEMOGLOBIN CONCENTRATION / MEAN CORPUSCULAR VOLUME / MONOCYTE / NEUTROPHIL / NUCLEATED RED BLOOD CELLS / PLATELET COUNT: tissue Blood; for ALANINE AMINOTRANSFERASE / ALBUMIN / ALKALINE PHOSPHATASE / ASPARTATE AMINOTRANSFERASE / BLOOD UREA NITROGEN / CARBON DIOXIDE / CHLORIDE / CHOLESTEROL / CREATINE PHOSPHOKINASE / CREATININE / GLUCOSE / LACTATE DEHYDROGENASE / LIPASE / PHOSPHORUS / POTASSIUM / SODIUM / TOTAL BILIRUBIN / TOTAL PROTEIN / URIC ACID: tissue Plasma
# [1] = 0 mg/kg, 72 h, dose level Control, time 3 day
# [2] = 0 mg/kg, 120 h, dose level Control, time 5 day
# [3] = 0.6 mg/kg, 72 h, dose level Low, time 3 day
structure (smiles),measurement,setting,value
O=C(O)CCCc1ccc(N(CCCl)CCCl)cc1 [CHLORAMBUCIL],ABSOLUTE BASOPHIL,[1],0 CELLS/uL
same,ABSOLUTE EOSINOPHIL,[1],104.17 CELLS/uL
same,ABSOLUTE LYMPHOCYTE,[1],14547 CELLS/uL
same,ABSOLUTE MONOCYTE,[1],292 CELLS/uL
same,ABSOLUTE SEGMENTED NEUTROPHIL,[1],1640.17 CELLS/uL
same,BASOPHIL,[1],0%
same,EOSINOPHIL,[1],0.67%
same,ERYTHROCYTE COUNT,[1],5.35 x10E6/uL
same,HEMATOCRIT,[1],33.67%
same,HEMOGLOBIN,[1],13.38 G/DL
same,LEUKOCYTE COUNT,[1],16.58 x10E3/uL
same,LYMPHOCYTE,[1],87.5%
same,MEAN CORPUSCULAR HEMOGLOBIN,[1],25.05 pg
same,MEAN CORPUSCULAR HEMOGLOBIN CONCENTRATION,[1],39.78 G/DL
same,MEAN CORPUSCULAR VOLUME,[1],62.97 fL
same,MONOCYTE,[1],1.83%
same,NEUTROPHIL,[1],10%
same,NUCLEATED RED BLOOD CELLS,[1],0 /100WBC
same,PLATELET COUNT,[1],1274.5 x10E3/uL
same,ALANINE AMINOTRANSFERASE,[1],76.83 u/L
same,ALBUMIN,[1],3.97 G/DL
same,ALKALINE PHOSPHATASE,[1],347 u/L
same,ASPARTATE AMINOTRANSFERASE,[1],97.17 u/L
same,BLOOD UREA NITROGEN,[1],14.33 mg/dL
same,CARBON DIOXIDE,[1],25.5 mmol/L
same,CHLORIDE,[1],100.33 MEQ/L
same,CHOLESTEROL,[1],68.67 mg/dL
same,CREATINE PHOSPHOKINASE,[1],659.17 u/L
same,CREATININE,[1],0.32 mg/dL
same,GLUCOSE,[1],160.67 mg/dL
same,LACTATE DEHYDROGENASE,[1],271.5 u/L
same,LIPASE,[1],11.67 u/L
same,PHOSPHORUS,[1],10.65 mg/dL
same,POTASSIUM,[1],5.95 MEQ/L
same,SODIUM,[1],139.65 MEQ/L
same,TOTAL BILIRUBIN,[1],0.2 mg/dL
same,TOTAL PROTEIN,[1],5.72 G/DL
same,URIC ACID,[1],1.37 mg/dL
same,ABSOLUTE BASOPHIL,[2],0 CELLS/uL
same,ABSOLUTE EOSINOPHIL,[2],331.5 CELLS/uL
same,ABSOLUTE LYMPHOCYTE,[2],15021.67 CELLS/uL
same,ABSOLUTE MONOCYTE,[2],376.5 CELLS/uL
same,ABSOLUTE SEGMENTED NEUTROPHIL,[2],3070.33 CELLS/uL
same,BASOPHIL,[2],0%
same,EOSINOPHIL,[2],1.83%
same,ERYTHROCYTE COUNT,[2],5.24 x10E6/uL
same,HEMATOCRIT,[2],33.22%
same,HEMOGLOBIN,[2],13.2 G/DL
same,LEUKOCYTE COUNT,[2],18.8 x10E3/uL
same,LYMPHOCYTE,[2],79.67%
same,MEAN CORPUSCULAR HEMOGLOBIN,[2],25.17 pg
same,MEAN CORPUSCULAR HEMOGLOBIN CONCENTRATION,[2],39.73 G/DL
same,MEAN CORPUSCULAR VOLUME,[2],63.38 fL
same,MONOCYTE,[2],2%
same,NEUTROPHIL,[2],16.5%
same,NUCLEATED RED BLOOD CELLS,[2],0 /100WBC
same,PLATELET COUNT,[2],1142.67 x10E3/uL
same,ALANINE AMINOTRANSFERASE,[2],52.5 u/L
same,ALBUMIN,[2],3.9 G/DL
same,ALKALINE PHOSPHATASE,[2],284.5 u/L
same,ASPARTATE AMINOTRANSFERASE,[2],81.33 u/L
same,BLOOD UREA NITROGEN,[2],16 mg/dL
same,CARBON DIOXIDE,[2],25.33 mmol/L
same,CHLORIDE,[2],99.5 MEQ/L
same,CHOLESTEROL,[2],74.83 mg/dL
same,CREATINE PHOSPHOKINASE,[2],448.33 u/L
same,CREATININE,[2],0.37 mg/dL
same,GLUCOSE,[2],164.17 mg/dL
same,LACTATE DEHYDROGENASE,[2],290.67 u/L
same,LIPASE,[2],6.83 u/L
same,PHOSPHORUS,[2],11.5 mg/dL
same,POTASSIUM,[2],6.28 MEQ/L
same,SODIUM,[2],139.5 MEQ/L
same,TOTAL BILIRUBIN,[2],0.13 mg/dL
same,TOTAL PROTEIN,[2],5.55 G/DL
same,URIC ACID,[2],1.12 mg/dL
same,ABSOLUTE BASOPHIL,[3],0 CELLS/uL
same,ABSOLUTE EOSINOPHIL,[3],134 CELLS/uL
same,ABSOLUTE LYMPHOCYTE,[3],11100 CELLS/uL
same,ABSOLUTE MONOCYTE,[3],438.67 CELLS/uL
same,ABSOLUTE SEGMENTED NEUTROPHIL,[3],1260.67 CELLS/uL
same,BASOPHIL,[3],0%
same,EOSINOPHIL,[3],1%
same,ERYTHROCYTE COUNT,[3],5.4 x10E6/uL
same,HEMATOCRIT,[3],34.47%
same,HEMOGLOBIN,[3],13.6 G/DL
same,LEUKOCYTE COUNT,[3],12.93 x10E3/uL
same,LYMPHOCYTE,[3],86%
same,MEAN CORPUSCULAR HEMOGLOBIN,[3],25.2 pg
same,MEAN CORPUSCULAR HEMOGLOBIN CONCENTRATION,[3],39.43 G/DL
same,MEAN CORPUSCULAR VOLUME,[3],63.87 fL
same,MONOCYTE,[3],3.33%
same,NEUTROPHIL,[3],9.67%
same,NUCLEATED RED BLOOD CELLS,[3],0 /100WBC
same,PLATELET COUNT,[3],1307.67 x10E3/uL
same,ALANINE AMINOTRANSFERASE,[3],68 u/L
same,ALBUMIN,[3],3.93 G/DL
same,ALKALINE PHOSPHATASE,[3],423 u/L
same,ASPARTATE AMINOTRANSFERASE,[3],81.33 u/L
same,BLOOD UREA NITROGEN,[3],13.33 mg/dL
same,CARBON DIOXIDE,[3],25.33 mmol/L
same,CHLORIDE,[3],101 MEQ/L
same,CHOLESTEROL,[3],71 mg/dL
same,CREATINE PHOSPHOKINASE,[3],316.67 u/L
same,CREATININE,[3],0.26 mg/dL
same,GLUCOSE,[3],153.33 mg/dL
same,LACTATE DEHYDROGENASE,[3],99.67 u/L
same,LIPASE,[3],13 u/L
same,PHOSPHORUS,[3],11.17 mg/dL
same,POTASSIUM,[3],5.8 MEQ/L
same,SODIUM,[3],140.37 MEQ/L
same,TOTAL BILIRUBIN,[3],0.17 mg/dL
same,TOTAL PROTEIN,[3],5.67 G/DL
same,URIC ACID,[3],1.1 mg/dL
